Laboratory results as given in ChEMBL document CHEMBL4420066, “Aryl amine substituted quinoxaline used as anticancer drugs” (2017).
Activity calls are given as the source filed them. The calls are words filed in the database; no cut-off is given here.

Key:
Homo sapiens [1] = organism: Homo sapiens; assay: Activation of PP2A in human HA22T cells assessed as minimal concentration causing increase in protein phosphatase activity incubated for 24 hrs using phosphopeptide substrate incubated for 10 mins by malachite green-phosphate complex assay; type: cell-based
Homo sapiens [2] = organism: Homo sapiens; assay: Inhibition of His-tagged recombinant human SET1 protein (1 to 290 amino acids) expressed in Escherichia coli interaction with N-terminal GST-tagged recombinant human PP2A-C (1 to 309 amino acids) assessed as minimal concentration causing disruption of SET-PP2Ac binding by SPR assay
Homo sapiens [3] = organism: Homo sapiens; assay: Activation of PP2A in human SKHEP1 cells assessed as minimal concentration causing increase in protein phosphatase activity incubated for 24 hrs using phosphopeptide substrate incubated for 10 mins by malachite green-phosphate complex assay; type: cell-based
Homo sapiens [4] = organism: Homo sapiens; assay: Activation of PP2A in human PLC5 cells assessed as minimal concentration causing increase in protein phosphatase activity incubated for 24 hrs using phosphopeptide substrate incubated for 10 mins by malachite green-phosphate complex assay; type: cell-based
Homo sapiens [5] = organism: Homo sapiens; assay: Activation of PP2A in human Hep3B cells assessed as minimal concentration causing increase in protein phosphatase activity incubated for 24 hrs using phosphopeptide substrate incubated for 10 mins by malachite green-phosphate complex assay; type: cell-based
Homo sapiens [6] = assay: Antitumor activity against human PLC5 cells xenografted in mouse assessed as reduction in tumor size at 10 mg/kg dosed for 4 weeks; type: functional, organism-based
Homo sapiens [7] = organism: Homo sapiens; assay: Cytotoxicity against human PLC5 cells assessed as reduction in cell viability at 0.5 to 4 uM incubated for 48 hrs by MTT assay; type: functional, cell-based
Homo sapiens [8] = organism: Homo sapiens; assay: Cytotoxicity against human PLC5 cells assessed as reduction in cell viability incubated for 48 hrs by MTT assay; type: functional, cell-based
SK-HEP1 [9] = assay: Cytotoxicity against human SKHEP1 cells assessed as reduction in cell viability incubated for 48 hrs by MTT assay; type: functional, cell-based
HA22T cell line [10] = assay: Cytotoxicity against human HA22T cells assessed as reduction in cell viability incubated for 48 hrs by MTT assay; type: functional, cell-based
SK-HEP1 [11] = assay: Induction of apoptosis in human SKHEP1 cells assessed as accumulation at subG1 phase at 0.5 to 4 uM by flow cytometry; type: functional, cell-based
Hep 3B2 [12] = assay: Cytotoxicity against human Hep3B cells assessed as reduction in cell viability incubated for 48 hrs by MTT assay; type: functional, cell-based
Hep 3B2 [13] = assay: Induction of apoptosis in human Hep3B cells assessed as accumulation at subG1 phase at 0.5 to 4 uM by flow cytometry; type: functional, cell-based
HA22T cell line [14] = assay: Induction of apoptosis in human HA22T cells assessed as accumulation at subG1 phase at 0.5 to 4 uM by flow cytometry; type: functional, cell-based
Homo sapiens [15] = organism: Homo sapiens; assay: Induction of apoptosis in human PLC5 cells assessed as accumulation at subG1 phase at 0.5 to 4 uM by flow cytometry; type: functional, cell-based

Structure (SMILES) | MEC (Homo sapiens [1]) [nM] | MEC (Homo sapiens [2]) [nM] | MEC (Homo sapiens [3]) [nM] | MEC (Homo sapiens [4]) [nM] | MEC (Homo sapiens [5]) [nM] | further results
Clc1cc(Cl)cc(Nc2nc3ccccc3nc2Cl)c1 | > 200 | 100 to 200 | > 200 | > 200 | > 200 | 
COc1cccc(Nc2nc3ccc([N+](=O)[O-])cc3nc2Nc2cccc(OC)c2)c1 | > 200 | > 200 | > 200 | > 200 | > 200 | 
FC(F)(F)Oc1ccc(Nc2nc3ccccc3nc2Nc2ccc(OC(F)(F)F)cc2)cc1 | 50 to 100 | < 100 | 50 to 100 | 50 to 100 | 50 to 100 | 
COc1ccc(Nc2nc3ccc([N+](=O)[O-])cc3nc2Nc2cccc(O)c2)cc1 | < 100 |  | < 100 | < 100 | < 100 | 
O=[N+]([O-])c1ccc2nc(Nc3cccc(Br)c3)c(Nc3cccc(Br)c3)nc2c1 | > 200 | > 200 | > 200 | > 200 | > 200 | 
FS(F)(F)(F)(F)c1ccc(Nc2nc3ccccc3nc2Nc2ccc(S(F)(F)(F)(F)F)cc2)cc1 | < 50 | 50 | < 50 | < 50 | < 50 | 
Clc1cccc(Nc2nc3ccccc3nc2Cl)c1 | > 200 | > 200 | > 200 | > 200 | > 200 | 
CNC(=O)c1cc(Oc2ccc(NC(=O)Nc3ccc(Cl)c(C(F)(F)F)c3)cc2)ccn1 |  |  |  |  |  | Activity (Homo sapiens [6]): Active; Activity (Homo sapiens [7]): Active
Clc1nc2ccccc2nc1Nc1ccccc1 | > 200 | > 200 | > 200 | > 200 | > 200 | 
Oc1ccc(Nc2nc3ccccc3nc2Nc2ccc(O)cc2)cc1 | 100 to 200 | < 100 | 100 to 200 | 100 to 200 | 100 to 200 | 
Clc1nc2ccccc2nc1NCc1ccccc1 | > 200 | > 200 | > 200 | > 200 | > 200 | 
C#Cc1cccc(Nc2ncnc3cc(OCCOC)c(OCCOC)cc23)c1 |  |  |  |  |  | Activity (Homo sapiens [8]): Active; Activity (SK-HEP1 [9]): Active; Activity (HA22T cell line [10]): Active; Activity (SK-HEP1 [11]): Active; Activity (Hep 3B2 [12]): Active; Activity (Hep 3B2 [13]): Active; Activity (HA22T cell line [14]): Active; Activity (Homo sapiens [15]): Active
O=[N+]([O-])c1cccc(Nc2nc3ccccc3nc2Cl)c1 | > 200 | > 200 | > 200 | > 200 | > 200 | 
O=[N+]([O-])c1ccc2nc(Nc3cccc(C(F)(F)F)c3)c(Nc3cccc(C(F)(F)F)c3)nc2c1 | > 200 | > 200 | > 200 | > 200 | > 200 | 
Nc1ccc2nc(Nc3ccc(C(F)(F)F)cc3)c(Nc3ccc(C(F)(F)F)cc3)nc2c1 | > 200 | > 200 | > 200 | > 200 | > 200 | 
FC(F)(F)c1cc(Nc2nc3ccccc3nc2Nc2ccc(Cl)c(C(F)(F)F)c2)ccc1Cl | 100 to 200 | < 100 | 100 to 200 | 100 to 200 | 100 to 200 | 
FC(F)(F)c1cc(Nc2nc3ccccc3nc2Cl)cc(C(F)(F)F)c1 | > 200 | > 200 | > 200 | > 200 | > 200 | 
FC(F)(F)Oc1ccc(Nc2nc3ccccc3nc2Cl)cc1 | > 200 | > 200 | > 200 | > 200 | > 200 | 
FS(F)(F)(F)(F)c1ccc(Nc2nc3ccccc3nc2Cl)cc1 | > 200 | > 200 | > 200 | > 200 | > 200 | 
C#Cc1cccc(Nc2nc3ccc([N+](=O)[O-])cc3nc2Nc2cccc(C#C)c2)c1 | < 50 | 50 to 100 | < 50 | < 50 | < 50 | 
C#Cc1cccc(Nc2nc3cc([N+](=O)[O-])ccc3nc2Nc2ccc(OC)cc2)c1 | 100 to 200 | 100 to 200 | 100 to 200 | 100 to 200 | 100 to 200 | 
